The target of one series is T1, Aiolos (Homo sapiens, UniProt Q96SW2+Q9UKT9).
T1 construct: Frozen human peripheral blood mononuclear cells (PBMCs) were thawed and treated with DMSO or compound for 24 hours; endogenous in cells; host or cells: human PBMCs (T cells gated CD3+CD20-)
The experiment in a line: Aiolos degradation flow cytometry assay in human PBMCs (T cells). Format: cell-based. The note with it: 24 hours, T cells (CD3+CD20-), read-out: Aiolos T Cell DC50. How it is done:
Example 67: Aiolos Degradation Assay
Frozen human peripheral blood mononuclear cells (PBMCs) were thawed and treated with DMSO or compound for 24 hours and then fixed and permeabilized using a Foxp3/Transcription Factor Fixation/Permeabilization Kit (eBioscience, 00-5523). Cells were stained with fluorophore-conjugated antibodies against CD20 (Biolegend 302330), CD3 (BD Pharmingen 552127), and Aiolos (Biolegend 371106). An additional set of DMSO-treated PBMCs was stained for CD20, CD3, and an AlexaFluor 647-conjugated mouse IgG1 isotype control antibody (Biolegend 400136). Stained cells were analyzed using an Attune NxT Acoustic Focusing Flow Cytometer (Thermo-Fisher A29004), and data was analyzed using FlowJo (v10.5.3) and GraphPad Prism (v7.00) software. Single lymphocytes were gated for B cells (CD20+CD3−) and T cells (CD3+CD20−), and the geometric mean fluorescence intensity (MFI) of Aiolos was calculated for each population. The MFI of the isotype control was calculated for each population and used to quantify background staining. Percent Aiolos degradation was calculated for each compound-treated sample using the following equation: […]
Four-parameter non-linear regressions were performed in GraphPad Prism 7.02 to obtain DC50 values. Aiolos T Cell DC50 values are provided in Table 4, wherein A<10.0 nM, 10.0 nM≤B≤1000 nM, and 1000 nM<C.

For series [1], the target named is T2, BTK (Homo sapiens, UniProt Q06187).
T2 construct: endogenous in cells; host or cells: TMD8 cells
The experiment in a line: Cellular BTK HTRF assay (BTK degradation) in TMD8 cells. In kind it is cell-based. The following applies: four hours incubation, Total-BTK HTRF relative to DMSO-treated cells. An outline of the steps: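 TMD8 cells were treated with compounds (final DMSO <0.200) for four hours at 37° C, 5% CO2, then lysed for 30 minutes. Total BTK was measured by two-antibody HTRF, taking the 665/620 nm ratio with background subtracted and expressed relative to DMSO-treated cells. DC50 came from four-parameter nonlinear regression.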
(In general: In TR-FRET formats the signal depends on donor and acceptor labels being close together.)

Series [2] addresses T3, BTK (Mus musculus, UniProt P35991).
T3 construct: from tissue; host or cells: whole blood or spleen of CD-1 or BALB/c mice
The experiment in a line: Mouse BTK degradation assay with oral dosing. In kind it is in vivo. The following applies: CD-1 or BALB/c mice, oral gavage (PO); Yes = significant BTK degradation upon oral dosage. The method, then:
Example 68: Mouse BTK Degradation Assay with Oral Dosing
A method of determining the pharmacodynamic profile of compounds of the present invention (experimental compound) was performed by dosing either CD-1 or BALB/c mice with the compound. The experimental compound was prepared in a suitable formulation and was administered via oral gavage (PO) at a suitable dose level and frequency as informed by prior pharmacokinetic and tolerability studies. Following administration of the experimental compound, BTK levels in blood or splenocytes are measured using flow cytometry or HTRF. For assessment of BTK levels via flow cytometry, either whole blood or spleen were first treated with ACK RBC lysis buffer to facilitate lysing of red blood cells. Remaining cells were then stained with fluorophore-conjugated antibodies against CD45, TCR beta and CD45R (B220). Cell pellets were washed with 1×PBS and fixed and permeabilized for 24 hrs with Foxp3/Transcription Factor Fixation/Permeabilization Kit. Cells were then stained intracellularly with unconjugated BTK antibody and detected with a fluorophore-conjugated secondary antibody. Stained cells were run on an Attune NxT Acoustic Focusing Flow Cytometer (Thermo-Fisher A29004), and data was analyzed using FlowJo (v10.5.3) and GraphPad Prism (v7.00) software. Lymphocytes were gated for B cells defined as CD45+ TCR beta− B220+ and T cells as CD45+ TCR beta+ B220−. The BTK geometric mean fluorescence intensity (MFI) was calculated for B and T cells. Percent BTK degradation for each experimental compound treated sample was calculated using the equation described below: […]

T1 sequence (Q9UKT9 whole entry): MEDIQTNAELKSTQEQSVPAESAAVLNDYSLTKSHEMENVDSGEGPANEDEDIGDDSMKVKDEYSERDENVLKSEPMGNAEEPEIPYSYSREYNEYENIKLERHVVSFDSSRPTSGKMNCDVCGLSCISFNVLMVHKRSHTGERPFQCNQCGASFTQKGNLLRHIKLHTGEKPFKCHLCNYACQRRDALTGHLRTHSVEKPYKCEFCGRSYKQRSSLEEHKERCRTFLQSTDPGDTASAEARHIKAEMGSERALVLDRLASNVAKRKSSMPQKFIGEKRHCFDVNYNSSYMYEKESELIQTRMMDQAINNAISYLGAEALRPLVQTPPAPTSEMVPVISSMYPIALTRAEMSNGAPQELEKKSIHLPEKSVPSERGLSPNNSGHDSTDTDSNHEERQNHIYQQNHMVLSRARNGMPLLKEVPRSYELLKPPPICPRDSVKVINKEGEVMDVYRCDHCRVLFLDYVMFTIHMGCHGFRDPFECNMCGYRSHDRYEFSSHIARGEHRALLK
T1 sequence (Q96SW2 whole entry): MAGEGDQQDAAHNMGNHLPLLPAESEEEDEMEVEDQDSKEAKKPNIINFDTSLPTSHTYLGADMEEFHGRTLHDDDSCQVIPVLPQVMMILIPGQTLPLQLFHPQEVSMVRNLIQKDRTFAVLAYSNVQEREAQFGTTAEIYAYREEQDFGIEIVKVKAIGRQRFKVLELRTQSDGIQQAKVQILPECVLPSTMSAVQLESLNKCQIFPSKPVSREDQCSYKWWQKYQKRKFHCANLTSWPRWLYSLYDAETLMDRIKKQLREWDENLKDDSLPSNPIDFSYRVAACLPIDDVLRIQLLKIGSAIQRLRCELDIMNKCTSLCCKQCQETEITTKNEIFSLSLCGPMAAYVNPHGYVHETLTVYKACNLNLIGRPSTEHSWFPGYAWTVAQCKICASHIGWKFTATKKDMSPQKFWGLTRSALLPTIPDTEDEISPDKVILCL
T1 sequence (Q16531 whole entry partner): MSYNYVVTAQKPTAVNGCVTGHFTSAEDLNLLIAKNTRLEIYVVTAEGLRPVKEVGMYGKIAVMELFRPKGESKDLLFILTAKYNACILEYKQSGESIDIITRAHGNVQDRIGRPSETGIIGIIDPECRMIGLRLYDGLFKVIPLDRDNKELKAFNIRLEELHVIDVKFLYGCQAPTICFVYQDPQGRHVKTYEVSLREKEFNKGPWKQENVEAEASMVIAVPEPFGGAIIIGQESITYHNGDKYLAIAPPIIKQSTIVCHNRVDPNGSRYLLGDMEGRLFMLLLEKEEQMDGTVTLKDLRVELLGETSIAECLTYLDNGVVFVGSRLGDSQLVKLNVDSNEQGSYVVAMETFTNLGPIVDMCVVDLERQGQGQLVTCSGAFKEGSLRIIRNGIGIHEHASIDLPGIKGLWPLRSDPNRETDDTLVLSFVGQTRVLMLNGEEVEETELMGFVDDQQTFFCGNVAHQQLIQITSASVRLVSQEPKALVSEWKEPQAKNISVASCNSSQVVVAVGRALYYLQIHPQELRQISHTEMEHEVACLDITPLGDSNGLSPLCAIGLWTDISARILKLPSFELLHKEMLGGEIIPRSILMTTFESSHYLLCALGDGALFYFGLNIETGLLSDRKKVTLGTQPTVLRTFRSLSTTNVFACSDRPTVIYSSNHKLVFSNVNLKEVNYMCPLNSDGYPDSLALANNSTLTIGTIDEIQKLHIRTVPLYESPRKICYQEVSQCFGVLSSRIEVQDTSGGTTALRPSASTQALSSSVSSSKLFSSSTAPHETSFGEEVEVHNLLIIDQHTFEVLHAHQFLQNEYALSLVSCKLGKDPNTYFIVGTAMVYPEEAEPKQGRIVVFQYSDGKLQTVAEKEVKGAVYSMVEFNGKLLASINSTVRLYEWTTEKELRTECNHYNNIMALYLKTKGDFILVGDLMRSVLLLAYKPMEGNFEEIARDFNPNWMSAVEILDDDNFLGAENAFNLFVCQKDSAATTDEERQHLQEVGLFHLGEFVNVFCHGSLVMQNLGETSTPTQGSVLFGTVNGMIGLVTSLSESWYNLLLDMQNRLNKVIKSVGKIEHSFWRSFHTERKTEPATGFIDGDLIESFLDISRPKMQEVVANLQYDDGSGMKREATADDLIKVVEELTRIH
T2 sequence (Q06187 whole entry): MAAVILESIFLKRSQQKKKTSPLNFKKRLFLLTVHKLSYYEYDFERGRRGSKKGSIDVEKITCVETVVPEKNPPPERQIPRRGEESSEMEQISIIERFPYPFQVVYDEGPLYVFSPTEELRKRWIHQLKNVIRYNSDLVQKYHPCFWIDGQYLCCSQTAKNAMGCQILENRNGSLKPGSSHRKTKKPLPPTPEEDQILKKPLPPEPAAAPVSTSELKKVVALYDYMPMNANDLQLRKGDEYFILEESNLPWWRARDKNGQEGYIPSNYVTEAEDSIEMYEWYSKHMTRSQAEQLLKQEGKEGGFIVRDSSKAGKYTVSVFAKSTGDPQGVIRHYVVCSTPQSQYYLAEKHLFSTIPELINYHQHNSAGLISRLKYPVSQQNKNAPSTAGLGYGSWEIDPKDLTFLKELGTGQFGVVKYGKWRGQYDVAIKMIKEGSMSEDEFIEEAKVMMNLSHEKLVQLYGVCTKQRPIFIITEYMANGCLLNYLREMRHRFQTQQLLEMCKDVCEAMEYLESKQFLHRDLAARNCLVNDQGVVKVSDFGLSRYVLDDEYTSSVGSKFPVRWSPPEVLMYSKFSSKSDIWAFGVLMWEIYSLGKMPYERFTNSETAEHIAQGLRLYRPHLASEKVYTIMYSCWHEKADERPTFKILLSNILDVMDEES
T3 sequence (P35991 whole entry): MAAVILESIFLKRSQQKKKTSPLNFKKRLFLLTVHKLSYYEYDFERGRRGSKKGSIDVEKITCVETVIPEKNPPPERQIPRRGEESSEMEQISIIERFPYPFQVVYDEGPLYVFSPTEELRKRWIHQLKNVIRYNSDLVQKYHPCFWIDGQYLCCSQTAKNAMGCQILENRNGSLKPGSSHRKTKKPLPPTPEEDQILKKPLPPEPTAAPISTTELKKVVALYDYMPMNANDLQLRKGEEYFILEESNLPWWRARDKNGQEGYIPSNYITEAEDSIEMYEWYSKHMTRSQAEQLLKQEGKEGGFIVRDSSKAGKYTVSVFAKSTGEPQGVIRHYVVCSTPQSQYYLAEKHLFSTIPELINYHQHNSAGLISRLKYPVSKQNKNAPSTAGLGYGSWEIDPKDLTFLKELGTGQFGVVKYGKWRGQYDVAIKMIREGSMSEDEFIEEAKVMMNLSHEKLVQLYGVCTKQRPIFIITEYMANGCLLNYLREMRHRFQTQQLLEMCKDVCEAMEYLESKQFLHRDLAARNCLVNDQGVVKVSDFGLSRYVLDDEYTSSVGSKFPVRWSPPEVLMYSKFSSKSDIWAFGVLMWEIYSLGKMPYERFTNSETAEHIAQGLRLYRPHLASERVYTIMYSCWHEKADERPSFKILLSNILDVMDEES

Consider `CN1CCN([C@@H]2CCCN(c3cnc(C(N)=O)c(Nc4ccc(N5CC6(C5)CN(c5ccc7c(c5)C(=O)N(C5CCC(=O)NC5=O)C7=O)C6)cc4)n3)C2)C1=O` (stereo partly drawn) [Compound 34, 3-((4-(6-(2-(2,6-dioxopiperidin-3-yl)-1,3-dioxoisoindolin-5-yl)-2,6-diazaspiro[3.3]heptan-2-yl)phenyl)amino)-5-((R)-3-(3-methyl-2-oxoimidazolidin-1-yl)piperidin-1-yl)pyrazine-2-carboxamide], for which the DC50 on Aiolos is 10 to 1000 nM; on BTK [1], less than 5 nM.
On the same counts, the results for `CN1CCN([C@@H]2CCCN(c3cnc(C(N)=O)c(Nc4ccc(C5CN(C6CCN(c7ccc8c(c7)C(=O)N(C7CCC(=O)NC7=O)C8=O)CC6)C5)cc4)n3)C2)C1=O` (stereo partly drawn) [Compound 37] are 10 to 1000 nM and less than 5 nM.
For the molecule `CN1CCN([C@@H]2CCCN(c3cnc(C(N)=O)c(Nc4ccc(N5CCN(C[C@@H]6[C@H]7CN(c8ccc9c(c8)C(=O)N(C8CCC(=O)NC8=O)C9=O)C[C@@H]67)CC5)cc4)n3)C2)C1=O` (stereo partly drawn) [Compound 38], the DC50 is 10 to 1000 nM at Aiolos and less than 5 nM on BTK [1].
`CN1CCN([C@@H]2CCCN(c3cnc(C(N)=O)c(Nc4ccc(C5CCN(C[C@H]6CCN(c7ccc8c(c7)C(=O)N(C7CCC(=O)NC7=O)C8=O)C6)CC5)cc4)n3)C2)C1=O` (stereo partly drawn) [Compound 44]: the “BTK degradation after oral dosing” value at BTK [2] is recorded as “Yes”. The molecule further yielded a DC50 on BTK [1] of less than 5 nM.
Turning to `CN1CCN([C@@H]2CCCN(c3cnc(C(N)=O)c(Nc4ccc(C5CCN(CC6CCN(c7ccc8c(c7)C(=O)N(C7CCC(=O)NC7=O)C8=O)CC6)CC5)cc4)n3)C2)C1=O` (stereo partly drawn) [Compound 51], the DC50 is 10 to 1000 nM on Aiolos and less than 5 nM at BTK [1].
On the same counts, the results for `CN1CCN([C@@H]2CCCN(c3cnc(C(N)=O)c(Nc4ccc(C5CCN(C6CN(c7ccc8c(c7)C(=O)N(C7CCC(=O)NC7=O)C8=O)C6)CC5)cc4)n3)C2)C1=O` (stereo partly drawn) [Compound 53] are 10 to 1000 nM and less than 5 nM.
On the same counts, the results for `CN1CCN([C@@H]2CCCN(c3cnc(C(N)=O)c(Nc4ccc(N5CCN(C(=O)CCOCCCc6ccc7c(c6)C(=O)N(C6CCC(=O)NC6=O)C7)CC5)cc4)n3)C2)C1=O` (stereo partly drawn) [Compound 61] are greater than 1000 nM and less than 5 nM.
For `CN1CCN([C@@H]2CCCN(c3cnc(C(N)=O)c(Nc4ccc(OCCCNc5ccc6c(c5)C(=O)N(C5CCC(=O)NC5=O)C6=O)cc4)n3)C2)C1=O` (stereo partly drawn) [Compound 64], the DC50 is 10 to 1000 nM on Aiolos and greater than 15 nM on BTK [1].
As to `NC(=O)c1ncc(N2CCC[C@H](N3CCOC3=O)C2)nc1Nc1ccc(N2CCC(C3CN(c4ccc5c(c4)C(=O)N(C4CCC(=O)NC4=O)C5=O)C3)CC2)cc1` (stereo partly drawn) [Compound 70], at BTK [2], the “BTK degradation after oral dosing” value is listed as “Yes”. Moreover, the DC50 on BTK [1] is less than 5 nM.
The like results for `CN1CCN([C@@H]2CCCN(c3cnc(C(N)=O)c(Nc4ccc(C5(C)CCN(C[C@H]6CCN(c7ccc8c(c7)C(=O)N(C7CCC(=O)NC7=O)C8=O)C6)CC5)cc4)n3)C2)C1=O` (stereo partly drawn) [Compound 71] were, in that order, “Yes” and less than 5 nM.
Consider `CN1CCN([C@@H]2CCCN(c3cnc(C(N)=O)c(Nc4ccc(C5CCN(CC6CCN(c7ccc8c(=O)n(C9CCC(=O)NC9=O)ccc8c7)CC6)CC5)cc4)n3)C2)C1=O` (stereo partly drawn) [Compound 72], for which the “BTK degradation after oral dosing” value at BTK [2] is “Yes”. The same molecule registered a DC50 on BTK [1] of less than 5 nM.
With `NC(=O)c1ncc(N2CCC[C@@H](N3CCOC3=O)C2)nc1Nc1ccc(C2CCN(C[C@H]3CCN(c4ccc5c(c4)C(=O)N(C4CCC(=O)NC4=O)C5=O)C3)CC2)cc1` (stereo partly drawn) [Compound 73], the “BTK degradation after oral dosing” value on BTK [2] is listed as “Yes”. Further, on BTK [1], the DC50 was less than 5 nM.
On the same counts, the results for `CN1CCN([C@H]2CCCN(c3cnc(C(N)=O)c(Nc4ccc(C5(C)CCN(C6CN(c7ccc8c(c7)C(=O)N(C7CCC(=O)NC7=O)C8=O)C6)CC5)cc4)n3)C2)C1=O` (stereo partly drawn) [Compound 74] are “Yes” and less than 5 nM.
`CN1CCN([C@@H]2CCCN(c3cnc(C(N)=O)c(Nc4ccc(C5(C)CCN(C6CN(Cc7ccc8c(c7)C(=O)N(C7CCC(=O)NC7=O)C8=O)C6)CC5)cc4)n3)C2)C1=O` (stereo partly drawn) [Compound 75]: the DC50 is greater than 1000 nM at Aiolos and less than 5 nM on BTK [1].
On the same counts, the results for `CN1CCN([C@H]2CCCN(c3cnc(C(N)=O)c(Nc4cnn(C5CCN(CC6CN(c7ccc8c(c7)C(=O)N(C7CCC(=O)NC7=O)C8=O)C6)CC5)c4)n3)C2)C1=O` (stereo partly drawn) [Compound 78] are 10 to 1000 nM and less than 5 nM.
The like results for `CN1CCN([C@H]2CCCN(c3cnc(C(N)=O)c(Nc4ccc5c(c4)CCN(CC4CN(c6ccc7c(c6)C(=O)N(C6CCC(=O)NC6=O)C7=O)C4)C5)n3)C2)C1=O` (stereo partly drawn) [Compound 92] were, in that order, less than 10 nM and 5 to 15 nM.
Turning to `CN1CCN([C@H]2CCCN(c3cnc(C(N)=O)c(Nc4ccc(N5CCN(CC#Cc6cccc7c6CN(C6CCC(=O)NC6=O)C7=O)CC5)cc4)n3)C2)C1=O` (stereo partly drawn) [Compound 99], the DC50 was greater than 1000 nM on Aiolos and less than 5 nM at BTK [1].
Take `NC(=O)c1ncc(N2CCCCC2)nc1Nc1ccc(N2CCC3(CCN(Cc4ccc5c(c4)C(=O)N(C4CCC(=O)NC4=O)C5=O)CC3)CC2)cc1` (stereo not drawn) [Compound 123]: the values for the DC50 at Aiolos and at BTK [1] were greater than 1000 nM and 5 to 15 nM, respectively.
`Cn1cc(Nc2nc(N3CCC[C@H](N4CC5(CN(CC6CCN(c7ccc(C(=O)NC8CCC(=O)NC8=O)nc7)CC6)C5)OC4=O)C3)cnc2C(N)=O)cn1` (stereo partly drawn) [Compound 131]: the “BTK degradation after oral dosing” value on BTK [2] was “Yes”. The DC50 at BTK [1] was less than 5 nM.
On the same counts, the results for `NC(=O)c1ncc(-c2nccs2)nc1Nc1ccc(N2CCC3(CCN(Cc4ccc5c(c4)C(=O)N(C4CCC(=O)NC4=O)C5=O)CC3)CC2)cc1` (stereo not drawn) [Compound 150] are “Yes” and 5 to 15 nM.
As to `CN1CCN([C@@H]2CCCN(c3cnc(C(N)=O)c(Nc4ccc(C5CCN(CCCNc6cccc7c6C(=O)N(C6CCC(=O)NC6=O)C7=O)CC5)cc4)n3)C2)C1=O` (stereo partly drawn) [Compound 155], the figures for the DC50 on Aiolos and at BTK [1] were 10 to 1000 nM and less than 5 nM, respectively.
For the molecule `CN1CCN([C@@H]2CCCN(c3cnc(C(N)=O)c(Nc4ccc(C5CCN(CC6CCN(c7ccc8c(c7)n(C)c(=O)n8C7CCC(=O)NC7=O)CC6)CC5)cc4)n3)C2)C1=O` (stereo partly drawn) [Compound 156], the DC50 on Aiolos is less than 10 nM; at BTK [1] it was less than 5 nM.
Regarding `CN1CCN(c2cnc(C(N)=O)c(Nc3ccc(C4CCN(C[C@H]5CCN(c6ccc7c(c6)C(=O)N(C6CCC(=O)NC6=O)C7=O)C5)CC4)cc3)n2)CC1` (stereo partly drawn) [Compound 157], the DC50 is greater than 1000 nM at Aiolos and 5 to 15 nM on BTK [1].
The like results for `CN1CCN([C@@H]2CCCN(c3cnc(C(N)=O)c(Nc4ccc(C5CCN(CC6CCN(c7ccc(OC8CCC(=O)NC8=O)cn7)CC6)CC5)cc4)n3)C2)C1=O` (stereo partly drawn) [Compound 166] were, in that order, greater than 1000 nM and less than 5 nM.

Broadly, the DC50 is the midpoint of the concentration-degradation curve.

These data come from patent US11479556B1, “Bifunctional compounds for degrading BTK via ubiquitin proteosome pathway” (NURIX THERAPEUTICS, INC., priority 2018, dated 2022).
